Assay [1] has as its system LoVo tumours established from non-transfected cells. The assay is described as follows: Anti-tumour activity in LoVo tumours from non-transfected cells. To be noted: PGP i.p., 3 doses at hourly intervals, 40-80 mg kg^-1. In kind it is in vivo, athymic nude mice. As to the method: (§1) Recombinant LoVo (A5B7-CPG2)2 fusion protein expressing tumour cells or mixes of recombinant and parental LoVo cells were injected subcutaneously into athymic nude mice as described in Example 9.
(§2) When the tumours are 5-7 mm in diameter the PGP prodrug is administered i.p. to the mice (3 doses in DMSO/0.15 M sodium bicarbonate buffer at hourly intervals over 2 h in dose ranges of 40-80 mg kg^−1).
(§3) Anti-tumour effects are judged by measuring the length of the tumours in two directions and calculating the tumour volume using the formula
(§4) where D is the larger diameter and d is the smaller diameter of the tumour. Tumour volume may be expressed relative to the tumour volume at the time the PGP prodrug is administered or alternatively the median tumouT volumes may be calculated. The anti-tumour activity is compared to control groups receiving either transfected or non-transfected tumour cells and buffer without PGP prodrug.

The test system of assay [2] is non-transfected LoVo cells. The assay is described as follows: In vitro prodrug killing, non-transfected LoVo cells. It counts as cell-based.
In assay [3] the test system is HCT116 tumours established from transfected HCT116 cells. Description: Anti-tumour activity in HCT116 tumours from transfected cells. Conditions: PGP i.p., 3 doses at hourly intervals, 5-25 mg kg^-1, vs PBS. In kind it is in vivo, athymic nude mice. The protocol:
(§5) HCT116 tumour cells transfected with the antibody-CPG2 fusion protein gene or control non-transfected HCT116 tumour cells are injected subcutaneously into athymic nude mice (10^7 tumour cells per mouse). When the turnours are 5-7 mm in diameter the PGP prodrug is administered i.p. to the mice (3 doses at hourly intervals over 2 h in dose ranges of 5-25 mg kg^−1). The anti-tumour effects are judged by measuring the length of the tumours in two directions and calculating the tumour volume using the formula: […]
(§6) where D is the larger diameter and d is the smaller diameter of the tumour.
(§7) Tumour volume is expressed relative to the tumour volume at the time the PGP prodrug is administered. The anti-tumour activity is compared to a control group receiving either transfected or non-transfected tumour cells and PBS ([…], 3.4 mM KCl, 12 mM Na2HPO4 and 1.8 mM KH2PO4, pH 7.2) instead of the PGP prodrug.

In assay [4] the test system is non-transfected HCT116 cells. It counts as cell-based. To be noted: read-out: IC50 (concentration required to inhibit cell growth by 50%).
Assay [5] has as its system LoVo cells transfected with an antibody-CPG2 fusion protein gene. The assay is described as follows: In vitro prodrug killing, LoVo cells transfected with antibody-CPG2 fusion protein gene. In kind it is cell-based.
Assay [6] deals with established HCT116 tumours produced from non-transfected HCT116 cells. The assay is described as follows: Anti-tumour activity, fusion gene vector injected intra-tumourally into established HCT116 tumours, then PGP. In kind it is in vivo, athymic nude mice. To be noted: PGP after 1-3 days, vs PBS. As to the method: Thus non-transfected HCT116 cells are injected into athymic nude mice (1×10^7 tumour cells per mouse) and once the tumours are 5-7 mm in diameter the vector containing the antibody-enzyme fusion protein gene is injected intra-tumourally. After 1-3 days to allow the antibody-enzyme fusion protein to be expressed by and bind to the HCT116 tumour cells, the PGP prodrug is administered as described above.

Assay [7] concerns LoVo tumours established from recombinant LoVo cells or recombinant Lovo/Parental LoVo cell mixes. The assay is described as follows: Anti-tumour activity in LoVo tumours expressing the antibody-CPG2 fusion protein. In kind it is in vivo, athymic nude mice. The protocol: as §1, §2, §3, §4
Assay [8] has as its system HCT116 tumours established from non-transfected cells. Description: Anti-tumour activity in HCT116 tumours from non-transfected cells. In kind it is in vivo, athymic nude mice. To be noted: PGP i.p., 3 doses at hourly intervals, 5-25 mg kg^-1. As to the method:
as §5, §6, §7

Assay [9] concerns established LoVo tumours produced from non-transfected parental LoVo cells. Description: Anti-tumour activity, fusion gene vector injected intra-tumourally into established LoVo tumours, then PGP. Conditions: PGP after 1-3 days, vs controls. It counts as in vivo, athymic nude mice. As to the method:
Thus non-transfected LoVo cells are injected into athymic nude mice (1×10^7 tumour cells per mouse) and once the tumours are 5-7 mm in diameter the vector containing the antibody-enzyme fusion protein gene is injected intra-tumourally. After 1-3 days to allow the antibody-enzyme fusion protein to be expressed by, and bind to, the LoVo tumour cells, the PGP prodrug is administered as described above.

Assay [10] has as its system HCT116 cells transfected with the antibody-CPG2 fusion protein gene. In kind it is cell-based.
For assay [11], the target named is T1, human carcinoembryonic antigen (CEA) (human, UniProt P06731 35-685, limits assumed).
T1 construct: CEA as coated on the ELISA plate; also called Carcinoma Embryonic Antigen
T1 sequence (looked up): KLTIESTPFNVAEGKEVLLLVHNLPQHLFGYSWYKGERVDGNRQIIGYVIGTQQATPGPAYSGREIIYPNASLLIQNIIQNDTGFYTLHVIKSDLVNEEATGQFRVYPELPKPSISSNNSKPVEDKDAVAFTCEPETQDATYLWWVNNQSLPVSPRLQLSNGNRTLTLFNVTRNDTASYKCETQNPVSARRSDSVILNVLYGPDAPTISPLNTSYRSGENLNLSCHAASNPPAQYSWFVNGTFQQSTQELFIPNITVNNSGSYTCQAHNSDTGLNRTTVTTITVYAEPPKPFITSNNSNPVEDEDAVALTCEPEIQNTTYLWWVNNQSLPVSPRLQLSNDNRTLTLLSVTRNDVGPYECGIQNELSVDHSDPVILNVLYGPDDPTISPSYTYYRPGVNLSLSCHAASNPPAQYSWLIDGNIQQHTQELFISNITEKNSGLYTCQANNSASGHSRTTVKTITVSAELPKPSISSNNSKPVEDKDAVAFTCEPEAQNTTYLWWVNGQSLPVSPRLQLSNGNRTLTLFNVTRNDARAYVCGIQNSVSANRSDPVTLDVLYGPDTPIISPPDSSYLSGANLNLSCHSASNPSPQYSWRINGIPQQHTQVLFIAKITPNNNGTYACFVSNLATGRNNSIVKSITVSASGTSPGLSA
The assay is described as follows: CEA ELISA, COS-7 supernatant, anti-human kappa or anti-CPG2 reporter antibody.
Description: For the CEA ELISA each well of a 96 well immunoplate (NUNC MAXISORB™) was coated with 50 ng CEA in 50 mM carbonate/bicarbonate coating buffer pH9.6 (buffer capsules—Sigma C3041) and incubated at 4° overnight. The plate was washed three times with PBS-TWEEN™ (PBS+ 0.05% TWEEN™ 20) and then blocked 150 μl per well of 1% BSA in PBS-TWEEN™ for 1 hour at room temperature. The plate was washed three times with PBS-TWEEN™, 100 μl of test sample added per well and incubated at room temperature for 2 hours. […] The plate was washed three times with PBS-TWEEN™ and then once more with PBS. To detect binding, add 100 μl per well of developing solution (one capsule of phosphate-citrate buffer—Sigma P4922—dissolved in 100 ml H_2O to which is added one 30 mg tablet o-phenylenediamine dihydrochloride—Sigma P8412) and incubated for up to 15 minutes. The reaction was stopped by adding 75 μl 2M H_2SO_4, and absorbance read at 490 nm.
The CEA ELISA using an anti CPG2 reporter antibody was essentially as above but instead of HRPO-labelled goat anti-human kappa antibody an 1/1000 dil. of a rabbit anti-CPG2 polyclonal sera was added, in 1% BSA in PBS-TWEEN™ and incubated at room temperature on a rocking platform for at 2 hours. The plate was washed three times with PBS-TWEEN™. […] The reaction was stopped by adding 75 μl 2M H_2SO_4, and absorbance read at 490 nm.

The target in assay [12] is T2, CEA on LoVo colorectal tumour cells (CEA positive) (human, UniProt P06731 35-685, GPI anchor on the C-terminal residue; heavily N-glycosylated on cells).
T2 construct: also called CEA positive LoVo cells; LoVo, CEA bearing, tumour cells
T2 sequence: T1 sequence (looked up)
The assay is described as follows: cell based ELISA on fixed cells, anti-human kappa HRP detection, OD 490 nm. Background: In an ELISA, binding on a coated surface is turned into a signal by an enzyme label.
Description: 100 µl of 6% formaldehyde was diluted in DMEM and left for 1 hour at 4°. Plates were centrifuged and washed 3 times in PBS containing 0.05% Tween™ by immersion soaking (first two washes for 2 minutes and the final wash for 5 minutes).
Colour was allowed to develop for about 5 min, stopped with 75 μl per well of 2M H_2SO_4 and OD read at 490 nm.

With `O=C(O)CC[C@H](NC(=O)Oc1ccc(N(CCCl)CCCl)cc1)C(=O)O` [PGP, N-(4-[N,N-bis(2-chloroethyl)amino]-phenoxycarbonyl)-L-glutamic acid], the anti-tumour activity result is on record as “no significant anti-tumour activity” in assay [1], “significant anti-tumour activity” in assay [6], “no significant anti-tumour activity” in [8] and “significant anti-tumour activity” in assay [9]. The entries for the “conversion of prodrug into active drug by cells” value in [2] and in [5] (transfected LoVo cells) were “unable to convert the prodrug” and “can convert the PGP prodrug into the more potent active drug”, respectively. Further, the anti-tumour effect entry in assay [3] is given as “significant anti-tumour effect”; in assay [7] (PGP i.p., 3 doses at hourly intervals, 40-80 mg kg^-1, vs controls) it was “significant anti-tumour effect”. Also, the IC50 in assay [4] was approximately 200 µM; in [10] (read-out: IC50 (concentration required to inhibit cell growth by 50%)) it was approximately 1 µM. In assay [5] (transfected vs non-transfected LoVo), the “sensitivity of transfected compared to non-transfected LoVo cells in terms of cell killing” value was “over 100 fold”. The tumour growth delay in assay [7] (60 mg/kg doses of prodrug, FIG. 5) was not below 11 days. Besides, in [7] (60 mg/kg doses of prodrug, day 16 post-dose, FIG. 5), the “median tumour volume relative to initial size” value stood at 3 times their initial size. Further, the “sensitivity of transfected compared to non-transfected HCT116 cells in terms of cell killing” value in [10] is given as “over 100 fold”.

B1: (A5B7 Fab-CPG2)2 fusion protein (other)
heavy: EVKLVESGGGLVQPGGSLRLSCATSGFTFTDYYMNWVRQPPGKALEWLGFIGNKANGYTTEYSASVKGRFTISRDKSQSILYLQMNTLRAEDSATYYCTRDRGLRFYFDYWGQGTTLTVSSASTKGPSVFPLAPCSRSTSESTAALGCLVKDYFPEPVTVSWNSGALTSGVHTFPAVLQSSGLYSLSSVVTVPSSNFGTQTYTCNVDHKPSNTKVDKTVGGGGSGGGGSGGGGSQKRDNVLFQAATDEQPAVIKTLEKLVNIETGTGDAEGIAAAGNFLEAELKNLGFTVTRSKSAGLVVGDNIVGKIKGRGGKNLLLMSHMDTVYLKGILAKAPFRVEGDKAYGPGIADDKGGNAVILHTLKLLKEYGVRDYGTITVLFNTDEEKGSFGSRDLIQEEAKLADYVLSFEPTSAGDEKLSLGTSGIAYVQVQITGKASHAGAAPELGVNALVEASDLVLRTMNIDDKAKNLRFQWTIAKAGQVSNIIPASATLNADVRYARNEDFDAAMKTLEERAQQKKLPEADVKVIVTRGRPAFNAGEGGKKLVDKAVAYYKEAGGTLGVEERTGGGTDAAYAALSGKPVIESLGLPGFGYHSDKAEYVDISAIPRRLYMAARLIMDLGAGK
light: QTVLSQSPAILSASPGEKVTMTCRASSSVTYIHWYQQKPGSSPKSWIYATSNLASGVPARFSGSGSGTSYSLTISRVEAEDAATYYCQHWSSKPPTFGGGTKLEIKRTVAAPSVFIFPPSDEQLKSGTASVVCLLNNFYPREAKVQWKVDNALQSGNSQESVTEQDSKDSTYSLSSTLTLSKADYEKHKVYACEVTHQGLSSPVTKSFNRGEC
notes: Two Fab-CPG2 units dimerise non-covalently through CPG2 (about 180 kDa); Tested as cell culture supernatant (COS-7 or recombinant Colo320DM / LoVo cells); also called (A5B7-CPG2 R6)2 fusion protein; (A5B7-CPG2)2 fusion protein
With B1, the binding result in [11] and in assay [12] was “binds” throughout.

(Values after patent publication US6339070B1, “Gene construct encoding a heterologous prodrug-activating enzyme and a cell targeting moiety” (Zeneca Limited, priority 1997, dated 2002).)
